According to PMC3904085 (Frontiers in Neuroscience, 2014):
“Also recorded” adds a separate entry of the source. Where two headings read alike, the source gives them in different places.

Columns and labels:
[1] = Rat exposure (plasma and brain pharmacokinetics); assay type: in vivo, Sprague–Dawley rats; settings: for concentration at 2 h / Cmax / Tmax / AUC(0-t): male, Sprague-Dawley; for AUC(0-t): read-out: AUC0–6 h
Protocol: Two cohorts of rats were used in each study, with samples taken from one cohort at 0.5, 1, and 2 h post-dose, and samples taken from the second cohort at 1.5, 4, and 6 h post-dose. The first cohort of animals was sacrificed at 2 h post-dose, and the second at 6 h post-dose to allow for collection of brain samples.

[2] = Plasma and brain binding by equilibrium dialysis (unbound fraction); assay type: in vitro ADME; settings: rat, equilibrium dialysis at 1 μM
[3] = test system: Sprague–Dawley rats; test: DRL 72-s schedule of reinforcement in rats; assay type: in vivo, rat; settings: for Lever Presses Mean / Reinforcers Mean: HSD rats DRL-72-s, raw data
From the text: Each chamber was enclosed in a melamine sound-attenuating cubicle. A white noise generator provided masking noise. The interior of each chamber consisted of three levers mounted on one wall with a house light mounted on the opposite wall. The house light was turned on at initiation of each test session and was turned off at the termination of each session. A water access port was situated next to the lever in the middle of the wall, wherein a reinforced response caused a clicker apparatus to sound paired with a dipper (0.02-ml cup) to be lifted from a water trough to an opening in the floor of the access port for 4 s.
Rats were initially trained under an alternative fixed ratio 1 water reinforcement schedule with a fixed 1-min time schedule for automatic reinforcement. Thus, each response was reinforced, with water also provided every minute in the absence of a response. […] Following acquisition of lever-pressing behavior, rats were trained daily on DRL 18-s sessions for ~2 weeks, following which they were advanced to DRL 72-s sessions. Responding on these sessions became stable after ~8 weeks. Experimental test sessions lasted for 1 h and were conducted 5 days/week during light hours.
(§1) Drugs were administered to the animals once or twice weekly with at least 1 week between subsequent drugs to minimize possible carryover effects. Drug treatments were administered on Tuesdays and Fridays. No treatments were administered on other test days. Wednesdays were control days. “Control” behavior was calculated as the pooled mean lever presses or reinforcers received during Wednesday sessions across all Wednesdays for the duration of each study. Performance was normalized to percent of control by dividing total responses (or reinforcers) for each drug or vehicle treatment by the mean number of responses (reinforcers) in the respective pooled control condition, multiplied by 100.
(§2) The data analyses were conducted on the raw response and reinforcement data. All behavioral data are expressed as the mean ± s.e.m. normalized to the control condition.

[4] = test system: C57Bl/6 mice; test: DRL 36-s schedule of reinforcement in wild-type mice; assay type: in vivo, mouse; settings: for Lever Presses Mean / Reinforcers Mean: WT mice DRL-36-s, raw data
From the text: (§3) The levers in these chambers were mounted on one wall with an adjacent food magazine next to the lever in the middle of the wall. A reinforced response caused a clicker apparatus to activate and the pellet feeder to deposit one 45-mg sucrose pellet (BioServ, Frenchtown, NJ) into the food magazine. The house light, which was mounted on the ceiling, was turned on when the session began, remained on throughout the entire session, and was turned off at the end of the session. Each experimental chamber was enclosed in a melamine sound-attenuating cubicle and equipped with a white noise generator to provide masking noise.
(§4) Each mouse was initially trained under a variable time 60-s operant schedule for 5 days, followed by fixed ratio-1 ratio schedule for 5 days. After the mice had acquired lever-pressing behavior, they were trained during daily DRL 6-s sessions for ~1 week, then mice progressed through weekly ascending DRL requirements (12, 18, 24, 30 s) before moving to DRL 36-s sessions. […] Experimental sessions lasted for 45 min and were conducted 5 days/week during light hours.
as §1, §2

[5] = test system: mice lacking OX1 receptors; test: DRL 36-s schedule of reinforcement in OX1 KO mice; assay type: in vivo, mouse; settings: for Lever Presses Mean / Reinforcers Mean: OX1 KO mice DRL-36-s, raw data
From the text: (§5) Rats were acclimated to housing conditions for 4 days, followed by sham dosing once daily for 3 days, prior to the experiment. For DRL experiments, male Sprague–Dawley rats weighing between 300 and 350 g at the beginning of the behavioral experiments (Holtzman, Madison, WI) were housed in pairs. For mouse DRL studies, male C57Bl/6 mice (Taconic Farms, Hudson, NY) or mice lacking either OX1 or OX2 receptors, around 8 weeks of age, were obtained from private breeding colonies at Taconic Farms (Hudson, NY). OX1 and OX2 receptor knockout mice were generated using in vitro fertilization of embryos in C57Bl/6 female mice with sperm harvested from male mice obtained from the University of Texas Southwestern Medical Center (Dallas, TX), and backcrossed for at least 10 generations. Mice and rats were housed in separate colony rooms, which were maintained at 22°C and 60% relative humidity. For rat DRL experiments, water was available for a 20-min period following the daily behavioral session. Based on recommendations from the animal care and use committee, the mouse DRL assay was developed using food deprivation rather than water deprivation. […] All experiments were conducted during the light cycle and in compliance with the Guide for the Care and Use of Laboratory Animals under protocols approved by a local animal care and use committee.
as §3, §4, §1, §2

[6] = test system: mice lacking OX2 receptors; test: DRL 36-s schedule of reinforcement in OX2 KO mice; assay type: in vivo, mouse; settings: for Lever Presses Mean / Reinforcers Mean: OX2 KO mice DRL-36-s, raw data
From the text: as §5, §3, §4, §1, §2

[7] = parameters: method as in earlier work; settings: ref Fitch et al., unpublished results; Anderson et al., under review; cited from earlier work
[8] = test system: c-Fos protein in rat medial prefrontal cortex; test: Restraint-stress-induced c-Fos activation (ELISA); settings: 30 mg/kg
Protocol: Thirty min later, rats were restrained in a rigid plastic flat-bottom restraint tube (Braintree Scientific, Inc.; Braintree, MA, USA) for 20 min. After the 20 min stress period, rats were moved to a new cage and housed individually. Rats were sacrificed 2 h after stress onset. […] Immediately after sacrifice, brains were removed, the medial prefrontal cortex (mPFC), a brain area implicated in the pathophysiology of depression, was dissected from both hemispheres and frozen in 1.5 ml centrifuge tubes in dry ice, and stored at −80°C for later analysis.
Frozen mPFC tissues were removed from the −80°C freezer and placed on ice. Tissue was homogenized with a dounce homogenizer. The nuclear extract was prepared from the homogenized samples as per manufacturer's instructions using a CHEMICON ®Nuclear Extraction Kit (Millipore; Billerica, MA, USA). Protein concentrations were determined in the nuclear extracts using the Pierce BCA Protein Assay kit (Pierce Biotechnology, Inc., Rockford, IL, USA). Nuclear fractions were then assayed for Fos protein levels using the Pierce c-Fos Transcription Factor Kit (Pierce Biotechnology, Inc., Rockford, IL, USA), according to the manufacturer's instructions. […] Data were analyzed and plotted using GraphPad Prism (GraphPad Software, Inc.; La Jolla, CA, USA).

[9] = 30 mg/kg PO, two hours post treatment, Ctotal × Fu
[10] = mice lacking OX1 receptors, DRL-36-s, 20 mg/kg

Compound: Cl.O=S(=O)(c1ccc(F)cc1)N(Cc1ncc[nH]1)c1ccccc1-c1ccccc1 [LSN2424100, N-((1H-imidazol-2-yl)methyl)-N-([1,1′-biphenyl]-2-yl)-4-fluorobenzenesulfonamide hydrochloride]
- Cu (unbound concentration) brain [1, 9]: 0.67 nM
- Cu (unbound concentration) plasma [1, 9]: 3.52 nM
- concentration at 2 h ([1]; brain, 30 mg/kg IP, two hours post treatment, read-out: Brain concentration): 77.2 ng/g
- concentration at 2 h ([1]; brain, 30 mg/kg PO, two hours post treatment, read-out: Brain concentration): 33.5 ng/g
- Cmax ([1]; plasma, 30 mg/kg IP): 1170 ng/mL
- Tmax ([1]; plasma, 30 mg/kg IP): 30 min
- AUC(0-t) ([1]; plasma, 30 mg/kg IP): 1300 ng·h/mL
- concentration at 2 h ([1]; plasma, 30 mg/kg IP, two hours post treatment, read-out: Plasma concentration): 149 ng/mL
- Cmax ([1]; plasma, 30 mg/kg PO): 196 ng/mL
- Tmax ([1]; plasma, 30 mg/kg PO): 30 min
- AUC(0-t) ([1]; plasma, 30 mg/kg PO): 269 ng·h/mL
- concentration at 2 h ([1]; plasma, 30 mg/kg PO, two hours post treatment, read-out: Plasma concentration): 45.8 ng/mL
- fraction unbound at 1 μM ([2]; brain, read-out: Fu (fraction unbound) brain): 0.0089
- fraction unbound at 1 μM ([2]; plasma, read-out: Fu (fraction unbound) plasma): 0.0341
- Lever Presses Mean ([3]; dose 3 mg/kg): 67.86
- Reinforcers Mean ([3]; dose 3 mg/kg): 10.71
- Lever Presses Mean ([3]; dose 10 mg/kg): 48.14
- Reinforcers Mean ([3]; dose 10 mg/kg): 12.14
- Lever Presses Mean ([3]; dose 30 mg/kg IP): 56.00
- Reinforcers Mean ([3]; dose 30 mg/kg IP): 15.43
- Total lever presses emitted ([3]; rats DRL-72-s, 10 mg/kg, normalized to control days): 60 % of control
- Lever presses made ([3]; rats DRL-72-s, 30 mg/kg IP): 70 % of control
- Reinforcers received ([3]; rats DRL-72-s, 30 mg/kg IP): 170 % of control
- Lever presses emitted ([4]; C57Bl/6 mice DRL-36-s, 10 mg/kg IP): 50 % of control
- Decrease in lever presses emitted, in words ([4]; C57Bl/6 mice DRL-36-s, 20 mg/kg): did not reach statistical significance
- Reinforcers received (maximum increase) ([4]; C57Bl/6 mice DRL-36-s, doses 3–20 mg/kg IP, did not reach statistical significance): up to 225 % of control
- Lever Presses Mean ([4]; dose 3 mg/kg): 153.38
- Reinforcers Mean ([4]; dose 3 mg/kg): 15.00
- Lever Presses Mean ([4]; dose 10 mg/kg): 83.88
- Reinforcers Mean ([4]; dose 10 mg/kg): 18.75
- Lever Presses Mean ([4]; dose 20 mg/kg): 105.43
- Reinforcers Mean ([4]; dose 20 mg/kg): 28.00
- Lever Presses Mean ([5]; dose 3 mg/kg): 164.38
- Reinforcers Mean ([5]; dose 3 mg/kg): 23.13
- Lever Presses Mean ([5]; dose 10 mg/kg): 174.75
- Reinforcers Mean ([5]; dose 10 mg/kg): 20.00
- Lever Presses Mean ([5]; dose 20 mg/kg): 105.25
- Reinforcers Mean ([5]; dose 20 mg/kg): 31.75
- Lever presses emitted [5, 10]: 50 % of control
- Reinforcers received [5, 10]: 200 % of control
- Lever Presses Mean ([6]; dose 10 mg/kg): 171.75
- Reinforcers Mean ([6]; dose 10 mg/kg): 18.88
- Lever Presses Mean ([6]; dose 20 mg/kg): 160.00
- Reinforcers Mean ([6]; dose 20 mg/kg): 23.38
- Lever Presses Mean ([6]; dose 40 mg/kg): 158.25
- Reinforcers Mean ([6]; dose 40 mg/kg): 26.25
- Change in reinforcers received or lever presses emitted, in words ([6]; mice lacking OX2 receptors, doses up to 40 mg/kg): no significant change
- Direct effects on food or water intake [7]: no direct effects
- Effect on restraint stress-induced increase in c-fos expression in prefrontal cortex ([8]; 30 mg/kg IP 30 min before 20 min restraint): attenuated; also recorded: blocked
- c-fos protein levels in prefrontal cortex without stress (home cage) vs vehicle ([8]; 30 mg/kg IP, no restraint stress): no effect
